Results: publication PMC6249675 (Structure (London, England : 1993), 2018)

What was measured:
Rac1 [1] = target: T1, Rac1 (Homo sapiens, UniProt P63000); assay: strong anion exchange chromatography of co-purified nucleotide; type: binding; details: co-purified from E. coli
Rnd3 = target: T2, Rnd3 (Homo sapiens, UniProt P61587); assay: as above; type: binding; details: co-purified from E. coli; not hydrolysed
T2 sequence (P61587 19-200): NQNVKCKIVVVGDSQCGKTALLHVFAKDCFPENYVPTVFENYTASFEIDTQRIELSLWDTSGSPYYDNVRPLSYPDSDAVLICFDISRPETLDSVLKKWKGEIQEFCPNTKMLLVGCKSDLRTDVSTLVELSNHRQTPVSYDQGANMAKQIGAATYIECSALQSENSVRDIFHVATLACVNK

Rac1 [2] = target: T1, Rac1; assay: GTP hydrolysis followed by strong anion exchange chromatography; type: biochemical; details: 5 mM GTP, 5 mM MgCl2, room temperature, 24 h

Row | SMILES | strong anion exchange chromatography of co-purified nucleotide (Rac1 [1]) | strong anion exchange chromatography of co-purified nucleotide (Rnd3) | GTP hydrolysis followed by strong anion exchange chromatography (Rac1 [2])
1 | Nc1nc2c(ncn2[C@@H]2O[C@H](COP(=O)(O)OP(=O)(O)O)[C@@H](O)[C@H]2O)c(=O)[nH]1 [GDP] | wild-type Rac1 which, like other active GTPases, is bound predominantly to GDP |  | 
2 | Nc1nc2c(ncn2[C@@H]2O[C@H](COP(=O)(O)OP(=O)(O)OP(=O)(O)O)[C@@H](O)[C@H]2O)c(=O)[nH]1 [GTP] |  | N-GTPase is similar to the pseudoGTPase Rnd3, which binds only GTP (Fig. 4d) | Rac1 (preloaded with GTP) exhibits complete hydrolysis of GTP to GDP in identical conditions
